# Measured values taken from patent US8846747B2, “Compounds and methods for altering lifespan of eukaryotic organisms” (University of Rochester, priority 2009, dated 2014).
# Experiments:
# RAW 264.7 cells = assay: LPS-induced TNF-α secretion from RAW 264.7 cells (ELISA); format: cell-based, murine; settings: compound 1 micromolar, LPS 10 ng/ml for 6 hrs; FIG. 3
# Description: FIG. 3. […] To obtain the data summarized in FIG. 3, RAW […] cells were incubated with Scrims (compounds of present invention) (1 uM), PI3K inhibitor positive control (LY-294002; 25 uM) or vehicle (DMSO) for 1 hr. LPS (10 ng/ml) was added to the medium. 6 hrs post LPS administration medium was collected and analyzed for TNFa levels using ELISA.
# In vitro anti-inflammatory activity in RAW 264.7 cells (murine leukaemic monocyte macrophage cell line): Lipopolysaccharide (LPS)-induced secretion of cytokines from RAW cells is a recognized in vitro assay for anti-inflammatory drugs. The anti-inflammatory activities of C1-1, C1-2, C1-3, C1-4, and C1-5 in the RAW cell model. RAW cells exposed to LPS were incubated with each of the five molecules at 1 micromolar concentration. The PIK3 inhibitor LY-294002 was used at 25 micromolar as a positive control. […] LPS was administered at 10 ng/ml for 6-hrs. TNF-α levels were quantified by ELISA assay. Results are presented as % of control with standard deviations of three replicates.
# [1] = tested on: mice exposed to cigarette smoke; assay: cigarette smoke-induced inflammation of mouse lungs; format: in vivo; settings: ip 5 mg/kg
# Description: FIG. 4. […] To obtain the data summarized in FIG. 4, Mice were exposed to cigarette smoke or filtered air for 3 consecutive days. They were treated ip with vehicle or Cob 1-2 (5 mg/kg) in DMSO: 1 group was treated daily during smoke exposure period and 1 group was pre-treated with 2 doses per week during the week prior to the smoke exposure and daily during the smoke exposure. On day 4, mice were sacrificed. Their lungs were washed and BAL fluid was stained for Europhiles count. The lungs were homogenized for ELISA quantifying MCP-1 levels.
# In vivo prevention of cigarette smoke-induced inflammation of mouse lungs: Exposing mice to cigarette smoke induces an acute inflammatory response in the lungs. Cigarette smoke-induced inflammation in the lungs was assessed by quantifying the ratio of macrophages to Europhiles in bronchoalveolar lavage fluid (BALF), and levels of pro-inflammatory markers such as MCP-1 in lung tissue (Yao H, Edirisinghe I, Rajendrasozhan S, Yang S R, Caito S, Adenuga D, Rahman I. Cigarette smoke-mediated inflammatory and oxidative responses are strain-dependent in mice. Am. J. Physiol Lung Cell Mol Physiol 2008; 294: L1174-L1186.).
# TNF-α-treated mice = assay: TNF-α-induced vascular inflammation in mice (leukocyte rolling in mesenteric vessels); format: in vivo, mouse; settings: ip 6 mg/kg once (1 hour) or twice (24 hours and 1 hour) prior to TNF-α; compared to TNF-α-treated control mice; FIG. 5
# Description: FIG. 5. Graphical results showing in vivo reduction of TNF-α-induced vascular inflammation in mice. To obtain the data summarized in FIG. 5, mice (3 each group) were injected with vehicle or Cob 1-2 (ip, 6 mg/kg in DMSO). Two treatments were used: i) 1 dose an hour before TNFa and, ii) 2 doses (24 hrs and 1 hr before TNFa ). TNFa was administered ip (20 ug/kg). 3 hours post TNFa administration, mice were anesthetized, their mesentery was exposed and placed on an inverted fluorescent microscope stage. Lymphocyte velocities within veins was determined by analyzing video recordings
# In vivo reduction of TNF-α-induced vascular inflammation in mice: The affects of drugs on vascular inflammation can be assessed by quantifying the rates of leukocytes rolling in mouse mesenteric vessels following intraperitoneal administration of TNF-α (Craig N. Morrell, Kenji Matsushita, and Charles J. Lowenstein. A Novel Inhibitor of N-Ethylmaleimide-Sensitive Factor Decreases Leukocyte Trafficking and Peritonitis. JPET 2005; 314:155-161). Vascular inflammation was induced in two groups of mice that were treated with C1-2 either once (1 hour) or twice (24 hours and 1 hour) prior to TNF-α administration.
# DeaD strain BB579 = assay: yeast Death of Daughters (DeaD) lifespan assay, reversal of nicotinamide (NAM) lifespan shortening; format: cell-based, S. cerevisiae (yeast); settings: Saccharomyces cerevisiae, BB579, read-out: C50 (concentration that yields half the maximal activity) by DeaD assay
# Description: The C50 (50% maximal activity) is a measure of the efficacy of a compound as a LAC and is determined by quantifying the dose-response curve for each LAC by DeaD assay in the presence and absence of nicotinamide. The C50 is the concentration of LAC that yields half the maximal activity. Dose response curves will generally peak and then decline. The decline is most likely due to toxicity at higher LAC concentrations. The C50 is determined relative to the maximal lifespan extension (the peak value). C50 values are provided for C1-5.
# The compounds listed in Table 1 of Example 3 were assessed for their anti-aging activities using the yeast Death of Daughters (DeaD) explicative lifespan assay. Specifically, the compounds were assessed for their capacity to reverse the lifespan shortening effect of exogenous nicotinamide (NAM), which is a known inhibitor of the anti-aging protein Sir2p (Anderson et al., 2003; Bitterman et al., 2002). These compounds were compared to the activities of known cluster 1 compounds, S3-5, and #3-11.
# “Activity” here is defined herein as the fold improvement in DeaD lifespan in the presence of 0.75 mM NAM relative to lifespan in the absence of cluster 1 compounds, over a range of compound concentrations between 0.5 nm-1 μm. This “activity” value is a means of assessing the usefulness of a compound as a LAC. The assays were performed as follows. DeaD strain BB579 was grown overnight in a permissive (galactose-containing) medium to mid-log phase, and then diluted to an OD600 of 0.0001 in restrictive (glucose-containing) medium with 0.75 mM NAM and the compound to be tested. Cells were then incubated at 30° C. for 3 days, with shaking and OD600 measurement every 20 minutes. The OD600 reading after 60 hours in restrictive medium, normalized to the same measurement for the “no drug” control, was used as the number for comparison.
# Five of the compounds with higher activity than S3-5 were selected for further study and were designated C1-1, C1-2, C1-3, C1-4, and C1-5 (see Table 2, Example 4). All data in FIGS. 1A(1)-(6) are from media containing 0.75 mM NAM. Note the different ranges of the X axes in FIGS. 1A(1)-(6)—very different C50 values for the compounds of the present invention compared the known C1 cluster compounds. […] All five had C50 values below 50 nM, while the C50 value for S3-5 was about 650 nM, and the C50 for S1-9 was about 350 nM.
# [2] = tested on: strain FY839 (healthy wild-type); assay: Toxicity of compounds by yeast growth assay; format: cell-based; settings: FY839, inset in FIG. 2
# Description: The toxicity of compounds C1-1, C1-2, C1-3, C1-4, and C1-5 in yeast was assessed by determining their effects on growth of a wild-type yeast strain. FIG. 2 is a graphical representation of the toxicity data. The yeast used was strain FY839 (healthy wild-type) growing in SCD. At 12 hours all were in log phase. […] This concentration is many-fold higher than the effective concentrations of these compounds as assessed by DeaD lifespan assays.
smiles,measurement,setting,value
"CCC(=O)C1C(=O)CC(c2ccc(F)cc2)CC1=O (stereo not drawn) [SRI# 22790, 1,3-cyclohexanedione, 2-propanoyl-5-[4-fluorophenyl]-]",reduction of secreted TNF-α relative to vehicle treated cells,RAW 264.7 cells,exhibited anti-inflammatory activity
same,total Europhiles count in BAL fluid,"[1]; 3 days smoke exposure, FIG. 4A",lowered total Europhiles count to near background levels
same,MCP-1 levels in lungs,"[1]; lung homogenate ELISA, FIG. 4B",decreased in a statistically significant fashion
same,leukocytes velocity in mesenteric vessels,TNF-α-treated mice,significantly increased leukocytes velocity
same,EC50,DeaD strain BB579,< 50 nM
same,toxic effects on growth at concentrations below 1 μM,[2],little or no toxic effects on growth
